# From patent US7750158B2, “Cannabinoid receptor ligands” (Schering Corporation, priority 2004, dated 2010)
# Where two headings read alike, the source gives them in different places.
# What was measured:
# [1] = target: T1, recombinant human cannabinoid CB2 receptor (Homo sapiens, UniProt P34972); assay: [3H] CP-55,940 competition binding to recombinant cannabinoid receptor membranes (CB2)
# T1 construct: purchased Receptor Biology RB-HCB2
# Description: (§1) Potential cannabinoid receptor ligands were screened for the ability to compete with [^3H] CP-55,940, which is a known receptor ligand, for binding to recombinant cannabinoid receptors. Test compounds were serially diluted in Diluent Buffer (50 mM Tris pH 7.1, 1 mM EDTA, 3 mM MgCl2, 0.1% BSA, 10% DMSO, 0.36% methyl cellulose (Sigma M-6385)) from stocks prepared in 100% DMSO. Aliquots (10 μL) were transferred into 96-well microtiter plates. Membrane preparations of recombinant human cannabinoid CB2 receptor (Receptor Biology #RB-HCB2) or recombinant human cannabinoid CB1 receptor (Receptor Biology #RB-HCB1) were diluted to 0.3 mg/mL in Binding Buffer (50 mM Tris pH 7.2, 1 mM EDTA, 3 mM MgCl2, 0.1% BSA). Aliquots (50 μL) were added to each well of the microtiter plate. The binding reactions were initiated by addition of [^3H] CP-55,940 (New England Nuclear #NET 1051; specific activity=180 Ci/mmol) to each well of the microtiter plate. Each 100 μl reaction mixture contained 0.48 nM [^3H] CP-55,940, 15 μg membrane protein in binding buffer containing 1% DMSO and 0.036% methyl cellulose. Following incubation for 2 hours at room temperature, the reactions were filtered through 0.5% polyethylenimine-coated GF/C filter plates (UniFilter-96, Packard) with a TomTec Mark 3U Harvester (Hamden, Conn.). The filter plate was washed 5 times with binding buffer, rotated 180°, then re-washed 5 times with binding buffer. Bound radioactivity was quantitated following addition of 30 μl of Packard Microscint 20 scintillant in a Packard TopCount NXT microplate scintillation counter. Non-linear regression analysis of the resulting data was performed using Prism 2.0b (GraphPad, San Diego, Calif.).
# The activities (potencies) for the compounds of the invention are determined by measuring their Ki values.
# [2] = target: T2, recombinant human cannabinoid CB1 receptor (Homo sapiens, UniProt P21554); assay: [3H] CP-55,940 competition binding to recombinant cannabinoid receptor membranes (CB1), reported as the CB1/CB2 selection ratio; details: Ki CB1 / Ki CB2, same binding assay
# T2 construct: purchased Receptor Biology RB-HCB1
# T2 sequence (P21554 whole entry): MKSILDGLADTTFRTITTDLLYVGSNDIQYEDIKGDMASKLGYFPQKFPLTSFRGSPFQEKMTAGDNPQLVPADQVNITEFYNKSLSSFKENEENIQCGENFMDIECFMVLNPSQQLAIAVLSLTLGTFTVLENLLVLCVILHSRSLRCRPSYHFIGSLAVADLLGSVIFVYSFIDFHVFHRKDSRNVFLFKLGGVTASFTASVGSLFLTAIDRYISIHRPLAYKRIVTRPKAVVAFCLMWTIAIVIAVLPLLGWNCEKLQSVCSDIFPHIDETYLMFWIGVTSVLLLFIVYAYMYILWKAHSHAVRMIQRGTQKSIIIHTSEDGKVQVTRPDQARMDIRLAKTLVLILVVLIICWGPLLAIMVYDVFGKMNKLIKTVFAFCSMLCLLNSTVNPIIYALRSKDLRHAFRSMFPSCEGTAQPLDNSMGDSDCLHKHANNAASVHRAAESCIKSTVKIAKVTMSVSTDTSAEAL
# Description: as §1
# [3] = 0.48 nM [3H] CP-55,940, 15 μg membrane protein, 2 hours at room temperature, read-out: Ki values (CB2 receptor)
# T1 sequence (P34972 whole entry): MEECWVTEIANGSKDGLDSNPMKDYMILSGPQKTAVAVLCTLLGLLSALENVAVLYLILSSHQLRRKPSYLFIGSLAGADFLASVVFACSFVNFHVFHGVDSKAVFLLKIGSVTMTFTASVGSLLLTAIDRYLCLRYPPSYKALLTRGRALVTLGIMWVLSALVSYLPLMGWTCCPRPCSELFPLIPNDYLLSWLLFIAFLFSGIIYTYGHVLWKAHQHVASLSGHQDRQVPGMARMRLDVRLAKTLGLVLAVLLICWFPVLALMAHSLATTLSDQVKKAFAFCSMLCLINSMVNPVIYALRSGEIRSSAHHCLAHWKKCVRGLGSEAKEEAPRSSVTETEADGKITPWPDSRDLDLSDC
"Ki [1, 3]",selection ratio of the Ki value of the CB1 receptor to that of the CB2 receptor [2],SMILES,Ki [1]
1 nM,~400,O=S(=O)(c1cc2ccccc2n1S(=O)(=O)c1ccccc1F)N1CCC2(CC1)C[C@@H]2NS(=O)(=O)C(F)(F)F [compound 22],
0.65 nM,~2700,CS(=O)(=O)NCC1C2CN(S(=O)(=O)c3ccc(Cl)cc3S(=O)(=O)c3ccccc3F)CC12 (stereo not shown) [compound 9],
3.3 nM,~4100,O=S(=O)(c1cc2cccnc2n1S(=O)(=O)c1ccccc1F)N1CC2C(CNS(=O)(=O)C(F)(F)F)C2C1 (stereo not shown) [compound 60],
1.5 nM,~6300,O=S(=O)(c1ccccn1)c1cc(Cl)ccc1S(=O)(=O)N1CC2C(CNS(=O)(=O)C(F)(F)F)C2C1 (stereo not shown) [compound 6],
1 nM,~3400,CS(=O)(=O)NCC1C2CN(S(=O)(=O)c3cc4ccccc4n3S(=O)(=O)c3ccccc3F)CC12 (stereo not shown) [compound 13],
0.24 nM,about 15000,CS(=O)(=O)NC1CC12CCN(S(=O)(=O)c1cc3ccccc3n1S(=O)(=O)c1ccccc1F)CC2 (racemic) [compound 20],
0.4 nM,~3500,O=S(=O)(c1cc2ccccc2n1S(=O)(=O)c1ccccn1)N1CCC2(CC1)CC2NS(=O)(=O)C(F)(F)F (stereo not shown) [compound 41],
1.46 nM,about 1000,O=S(=O)(c1ccccc1F)c1cc(Cl)ccc1S(=O)(=O)N1CC2C(CNS(=O)(=O)C(F)(F)F)C2C1 (stereo not shown) [compound 11],

SMILES,"Ki [1, 3]",selection ratio of the Ki value of the CB1 receptor to that of the CB2 receptor [2],Ki [1]
Cn1c(S(=O)(=O)N2CCC3(CC2)CC3NS(=O)(=O)C(F)(F)F)c(S(=O)(=O)c2ccccc2F)c2ccccc21 (stereo not shown) [compound 61],,~1200,3.9 nM
O=S(=O)(c1ccccn1)c1cc(C(F)(F)F)ccc1S(=O)(=O)N1CCC2(CC1)CC2NS(=O)(=O)C(F)(F)F (stereo not shown) [compound 31],,~71,5 nM
CS(=O)(=O)NCC1CC2CCC(C1)N2S(=O)(=O)c1cc2ccccc2n1S(=O)(=O)c1ccccc1F (stereo not shown) [compound 47],,~790,7 nM
CC(C)n1c(S(=O)(=O)N2CC3C(CNC(=O)OC(C)(C)C)C3C2)c(S(=O)(=O)c2ccccc2F)c2ccccc21 (stereo not shown) [compound 62],,~1.9,28 nM
CCC1(CNS(=O)(=O)C(F)(F)F)CC2CCC(C1)N2S(=O)(=O)c1ccc(Cl)cc1S(=O)(=O)c1ccccn1 (stereo not shown) [compound 59],,~52,25.9 nM
CCC1(CNCC(F)(F)F)CC2CCC(C1)N2S(=O)(=O)c1ccc(Cl)cc1S(=O)(=O)c1ccccn1 (stereo not shown) [compound 58],,~770,41 nM
